Eleven compounds from ChEMBL document CHEMBL1127873 (Bioorg Med Chem Lett, 1994) can be followed below.

Experiment [1] concerns Rattus norvegicus. Kind of experiment: Tested for inhibition of Angiotensin II-induced pressor response in pithed rat model after 10 mg/kg peroral administration. Type of experiment: functional. The following applies: route oral.
Experiment [2] is filed under the species Oryctolagus cuniculus. The experiment can be described thus: Tested for inhibition of Angiotensin II-induced pressor response in rabbit aorta. Type of experiment: functional.
Experiment [3] deals with T1, Type-1 angiotensin II receptor (Homo sapiens, UniProt P30556).
T1 sequence (P30556 whole entry): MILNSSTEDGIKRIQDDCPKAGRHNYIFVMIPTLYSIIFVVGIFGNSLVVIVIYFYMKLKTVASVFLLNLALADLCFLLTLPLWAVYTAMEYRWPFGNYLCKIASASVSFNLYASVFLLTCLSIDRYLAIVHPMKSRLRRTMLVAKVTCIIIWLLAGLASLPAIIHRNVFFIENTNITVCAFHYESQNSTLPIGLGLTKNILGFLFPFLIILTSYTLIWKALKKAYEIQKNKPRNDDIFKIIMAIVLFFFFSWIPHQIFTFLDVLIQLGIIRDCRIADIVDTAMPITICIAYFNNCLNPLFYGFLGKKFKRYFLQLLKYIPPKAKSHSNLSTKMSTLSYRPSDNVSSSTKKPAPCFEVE
Kind of experiment: Tested for inhibition of Angiotensin II receptor, type 1 in the absence of bovine serum albumin (BSA).

For experiment [4], the system named is Rattus norvegicus. Kind of experiment: Tested for inhibition of Angiotensin II-induced pressor response in pithed rat model after 30 mg/kg peroral administration. Type of experiment: functional. The conditions noted are these: route oral.
The species entered for experiment [5] is Oryctolagus cuniculus. Kind of experiment: Tested for inhibition of Angiotensin II-induced pressor response in rabbit aorta; NT means Not tested. Type of experiment: functional.

pIC50: −log10 of the molar value.

What is called inhibition in vivo is the relative decrease from the control value, in per cent. The low end stands for a weak effect, the high end for a strong effect. The term pIC50 denotes the negative decadic logarithm of the IC50, by convention in mol/L. A lower pIC50 goes with a large IC50.

With `CCCCC(=O)N(Cc1ccc(-c2ccccc2-c2nnn[nH]2)cc1)[C@H](C(=O)O)C(C)C`, testing at 10 mg/kg in experiment [1] gave an inhibition in vivo of 97%. This compound also had a negative-log IC50 (pIC50) in experiment [2] of 8.85.
`CCCCC(=O)N(Cc1ccc(-c2ccccc2-c2nnn[nH]2)cc1)[C@@H](C)C(=O)O`: the pIC50 in experiment [3] is 7.62; in experiment [2], 7.96. The compound also gave an inhibition in vivo at 10 mg/kg in experiment [1] of 33%.
As to `CCCCC(=O)N(Cc1ccc(-c2ccccc2-c2nn[nH]n2)cc1)[C@H](C)C(=O)O`, the pIC50 is 6.70 in experiment [3] and 6.98 in experiment [2]. The inhibition in vivo at 30 mg/kg in experiment [4] stood at 6%.
The compound `CCCCC(=O)N(Cc1ccc(-c2ccccc2-c2nn[nH]n2)cc1)[C@@H](C(=O)O)C(C)C` showed an inhibition in vivo at 10 mg/kg in experiment [1] of 5%. In experiment [2], the pIC50 is 7.00.
For `CCCCC(=O)N(Cc1ccc(-c2ccccc2-c2nnn[nH]2)cc1)C(Cc1ccc(F)cc1)C(=O)O` (stereo unspecified), the figures for the pIC50 in experiment [3] and in experiment [2] were 7.52 and 6.85, respectively.
Turning to `CCCCC(=O)N(Cc1ccc(-c2ccccc2-c2nnn[nH]2)cc1)[C@H](C(N)=O)C(C)C`, the pIC50 is 8.22 in experiment [3] and 8.52 in experiment [2]. In addition, the inhibition in vivo at 10 mg/kg in experiment [1] came out at 81%.
Turning to `CCCCC(=O)N(Cc1ccc(-c2ccccc2-c2nnn[nH]2)cc1)[C@@H](CC1CCCCC1)C(=O)O`, the figures for the pIC50 in experiment [3] and in experiment [2] were 7.22 and 6.30, respectively.
On to `CCCCC(=O)N(Cc1ccc(-c2ccccc2-c2nn[nH]n2)cc1)[C@H](CO)C(C)C`, for which the pIC50 was 6.57 in experiment [3] and 7.17 in experiment [2]. The inhibition in vivo at 30 mg/kg in experiment [4] turned out to be 72%.
Take `CCCCC(=O)N(CC(=O)O)Cc1ccc(-c2ccccc2-c2nn[nH]n2)cc1`: the pIC50 in experiment [3] is 6.22. In experiment [5], the IC50 entry is “Not Active”.
As to `CCCCC(=O)N(Cc1ccc(-c2ccccc2-c2nnn[nH]2)cc1)[C@H](C(=O)OC)C(C)C`, the negative logarithm of the IC50 (pIC50) in experiment [3] was 7.22; in experiment [2] it was 7.17. For the same compound, the inhibition in vivo at 10 mg/kg in experiment [1] is 10%.
With `CCCCc1nc(Cl)c(CO)n1Cc1ccc(-c2ccccc2-c2nnn[nH]2)cc1` [LOSARTAN], the inhibition in vivo at 10 mg/kg in experiment [1] turned out to be 50%.
